Measurements from patent publication US20260007131A1, “HERBICIDAL COMPOSITION CONTAINING DIFLUOROBUTENOIC ACID AMIDE COMPOUND” (ISHIHARA SANGYO KAISHA, LTD., priority 2022, published 2026).

What was measured:
Format in all cases: in vivo
[1] = test system: common lambsquarters (Chenopodium album); test: Herbicidal effect on common lambsquarters (foliar treatment)
Procedure: (§1) Upland soil was put into a 1/300,000 hectare (ha) pot, seeds of barnyardgrass (Echinochloa crus-galli) were sown, and about 1.5 cm of cover soil was put. The barnyardgrass was grown for 10 days in a greenhouse until it reached a predetermined leaf stage. […] The spray solution was sprayed over the grown barnyardgrass with a small sprayer for foliar treatment.
(§2) Upland soil was put into a 1/300,000 hectare (ha) pot, seeds of barnyardgrass (Echinochloa crus-galli), crabgrass (Digitaria sanguinalis), green foxtail (Setaria viridis), wild oat (Avena fatua), Italian ryegrass (Lolium multiflorum), foxtail shortawn (Alopecurus aequalis), annual bluegrass (Poa annua), redroot pigweed (Amaranthus retroflexus), common chickweed (Stellaria media) common lambsquarters (Chenopodium album) and black nightshade (Solanum nigrum) were sown, and about 1.5 cm of cover soil was put. The plants were grown for 10 days in a greenhouse until they reached a predetermined leaf stage.

[2] = test system: Italian ryegrass (Lolium multiflorum); test: Herbicidal effect on Italian ryegrass (soil treatment); settings: Comparative Test 2, Italian ryegrass, read-out: Growth inhibition rate
Excerpt: (§3) Upland soil was put into a 1/300,000 hectare (ha) pot, seeds of barnyardgrass (Echinochloa crus-galli) were sown, and about 1.5 cm of cover soil was put. […] On the next day after sowing, the spray solution was sprayed with a small sprayer for soil treatment.
(§4) Upland soil was put into a 1/300,000 hectare (ha) pot, seeds of barnyardgrass (Echinochloa crus-galli), crabgrass (Digitaria sanguinalis), green foxtail (Setaria viridis), Italian ryegrass (Lolium multiflorum), redroot pigweed (Amaranthus retroflexus) and common chickweed (Stellaria media) were sown, and about 1.5 cm of cover soil was put.

[3] = test system: common chickweed (Stellaria media); test: Herbicidal effect on common chickweed (foliar treatment)
Procedure: as §1, §2

[4] = test system: black nightshade (Solanum nigrum); test: Herbicidal effect on black nightshade (foliar treatment)
Procedure: as §1, §2

[5] = test system: annual bluegrass (Poa annua); test: Herbicidal effect on annual bluegrass (foliar treatment)
Procedure: as §1, §2

[6] = test system: redroot pigweed (Amaranthus retroflexus); test: Herbicidal effect on redroot pigweed (soil treatment)
Excerpt: as §3, §4

[7] = test system: green foxtail (Setaria viridis); test: Herbicidal effect on green foxtail (foliar treatment)
Procedure: as §1, §2

[8] = test system: redroot pigweed (Amaranthus retroflexus); test: Herbicidal effect on redroot pigweed (foliar treatment)
Procedure: as §1, §2

[9] = test system: crabgrass (Digitaria sanguinalis); test: Herbicidal effect on crabgrass (foliar treatment)
Procedure: as §1, §2

[10] = test system: wild oat (Avena fatua); test: Herbicidal effect on wild oat (foliar treatment)
Procedure: as §1, §2

[11] = test system: Italian ryegrass (Lolium multiflorum); test: Herbicidal effect on Italian ryegrass (foliar treatment)
Procedure: as §1, §2

[12] = test system: green foxtail (Setaria viridis); test: Herbicidal effect on green foxtail (soil treatment)
Excerpt: as §3, §4

[13] = test system: common chickweed (Stellaria media); test: Comparative Test 2: herbicidal effect on common chickweed (soil treatment); settings: Comparative Test 2, common chickweed, read-out: Growth inhibition rate
Excerpt: Upland soil was put into a 1/300,000 hectare (ha) pot, seeds of barnyardgrass (Echinochloa crus-galli), crabgrass (Digitaria sanguinalis), green foxtail (Setaria viridis), Italian ryegrass (Lolium multiflorum), redroot pigweed (Amaranthus retroflexus) and common chickweed (Stellaria media) were sown, and about 1.5 cm of cover soil was put. The Invention Compound (Aa-1-1, Aa-9-2) or the compound 4b described in Patent Document 1 was weighed to achieve a predetermined active ingredient dose, dissolved in acetone (containing 0.5 vol % of surfactant (TritonX-100: manufactured by Kishida Chemical Co., Ltd.)) or dimethyl sulfoxide and diluted with water (containing 0.1 vol % of agricultural spreader (Surfactant WK: manufactured by MARUWA Biochemical Co., Ltd.) in an amount corresponding to 1,000 liter per hectare, to prepare each spray solution. On the next day after sowing, each spray solution was sprayed with a small sprayer for soil treatment. On the 14th day after the soil treatment, the state of growth of each plant was visually observed, and the herbicidal effect was evaluated in accordance with the growth inhibition rate (%) of from 0 (equivalent to the non-treated area) to 100 (complete kill).

[14] = test system: mexican burningbush (Kochia scoparia); test: Herbicidal effect on mexican burningbush (soil treatment); settings: Bassia scoparia, 14th day, read-out: growth inhibition rate
Excerpt: Upland soil was put into a 1/300,000 hectare (ha) pot, seeds of barnyardgrass (Echinochloa crus-galli) were sown, and about 1.5 cm of cover soil was put. The Invention Compound was weighed to achieve a predetermined active ingredient amount, dissolved in acetone (containing 0.5 vol % of surfactant (TritonX-100: manufactured by Kishida Chemical Co., Ltd.)) or dimethyl sulfoxide and diluted with water (containing 0.1 vol % of agricultural spreader (Surfactant WK: manufactured by MARUWA Biochemical Co., Ltd.)) in an amount corresponding to 1,000 liter per hectare, to prepare a spray solution. On the next day after sowing, the spray solution was sprayed with a small sprayer for soil treatment.
On the 14th day after the soil treatment, the state of growth of each plant was visually observed.
To confirm herbicidal effect on mexican burningbush (Kochia scoparia), the same test as in Test Example 2 (2-1) (soil treatment) was conducted using the following compounds.

[15] = redroot pigweed, 250 g/ha, 14th day, read-out: growth inhibition rate
[16] = green foxtail, 250 g/ha, 14th day, read-out: growth inhibition rate

Work on `COC(=O)[C@H]1C[C@@H](NC(=O)C(F)(F)/C=C/c2cc(F)cc(F)c2)C1` [Aa-1-1] yielded an inhibition at 500 g/ha ([1]; Comparative Test 1, common lambsquarters, 500 g/ha, read-out: Growth inhibition rate) of 70 to 90%, an inhibition at 1000 g/ha ([1]; Comparative Test 1, common lambsquarters, 1000 g/ha, read-out: Growth inhibition rate) of 70 to 90% and an inhibition at 250 g/ha ([1]; common lambsquarters, 250 g/ha, 14th day, read-out: growth inhibition rate) of at least 70%. The inhibition at 500 g/ha ([2]; 500 g/ha) was at least 90%, the inhibition at 1000 g/ha ([2]; 1000 g/ha) was at least 90% and the inhibition at 500 g/ha ([3]; Comparative Test 1, common chickweed, 500 g/ha, read-out: Growth inhibition rate) was at least 90%. The inhibition at 1000 g/ha ([3]; Comparative Test 1, common chickweed, 1000 g/ha, read-out: Growth inhibition rate) was at least 90%, the inhibition at 250 g/ha ([3]; common chickweed, 250 g/ha, 14th day, read-out: growth inhibition rate) was at least 70% and the inhibition at 500 g/ha ([4]; Comparative Test 1, black nightshade, 500 g/ha, read-out: Growth inhibition rate) was 70 to 90%. For the same molecule, the inhibition at 1000 g/ha ([4]; Comparative Test 1, black nightshade, 1000 g/ha, read-out: Growth inhibition rate) was at least 90%, the inhibition at 250 g/ha ([4]; black nightshade, 250 g/ha, 14th day, read-out: growth inhibition rate) was at least 70% and the inhibition at 500 g/ha ([5]; Comparative Test 1, annual bluegrass, 500 g/ha, read-out: Growth inhibition rate) was at least 90%. For the same molecule, the inhibition at 1000 g/ha ([5]; Comparative Test 1, annual bluegrass, 1000 g/ha, read-out: Growth inhibition rate) was at least 90%, the inhibition at 250 g/ha ([5]; annual bluegrass, 250 g/ha, 14th day, read-out: growth inhibition rate) was at least 70% and the inhibition at 500 g/ha ([6]; Comparative Test 2, redroot pigweed, 500 g/ha, read-out: Growth inhibition rate) was at least 90%. For the same molecule, the inhibition at 1000 g/ha ([6]; Comparative Test 2, redroot pigweed, 1000 g/ha, read-out: Growth inhibition rate) was at least 90%, the inhibition at 250 g/ha [6, 15] was at least 70% and the inhibition at 500 g/ha ([7]; Comparative Test 1, green foxtail, 500 g/ha, read-out: Growth inhibition rate) was at least 90%. It also gave an inhibition at 1000 g/ha ([7]; Comparative Test 1, green foxtail, 1000 g/ha, read-out: Growth inhibition rate) of at least 90%, an inhibition at 250 g/ha [7, 16] of at least 70% and an inhibition at 500 g/ha ([8]; Comparative Test 1, redroot pigweed, 500 g/ha, read-out: Growth inhibition rate) of 70 to 90%. The inhibition at 1000 g/ha ([8]; Comparative Test 1, redroot pigweed, 1000 g/ha, read-out: Growth inhibition rate) was 70 to 90%, the inhibition at 250 g/ha [8, 15] was at least 70% and the inhibition at 500 g/ha ([9]; Comparative Test 1, crabgrass, 500 g/ha, read-out: Growth inhibition rate) was at least 90%. For the same molecule, the inhibition at 1000 g/ha ([9]; Comparative Test 1, crabgrass, 1000 g/ha, read-out: Growth inhibition rate) was at least 90%, the inhibition at 250 g/ha ([9]; crabgrass, 250 g/ha, 14th day, read-out: growth inhibition rate) was at least 70% and the inhibition at 500 g/ha ([10]; Comparative Test 1, wild oat, 500 g/ha, read-out: Growth inhibition rate) was at least 90%. For the same molecule, the inhibition at 1000 g/ha ([10]; Comparative Test 1, wild oat, 1000 g/ha, read-out: Growth inhibition rate) was at least 90%, the inhibition at 250 g/ha ([10]; wild oat, 250 g/ha, 14th day, read-out: growth inhibition rate) was at least 70% and the inhibition at 500 g/ha ([11]; Comparative Test 1, Italian ryegrass, 500 g/ha, read-out: Growth inhibition rate) was at least 90%. It also gave an inhibition at 1000 g/ha ([11]; Comparative Test 1, Italian ryegrass, 1000 g/ha, read-out: Growth inhibition rate) of at least 90%, an inhibition at 250 g/ha ([11]; Italian ryegrass, 250 g/ha, 14th day, read-out: growth inhibition rate) of at least 70% and an inhibition at 500 g/ha ([12]; Comparative Test 2, green foxtail, 500 g/ha, read-out: Growth inhibition rate) of at least 90%. For the same molecule, the inhibition at 1000 g/ha ([12]; Comparative Test 2, green foxtail, 1000 g/ha, read-out: Growth inhibition rate) was at least 90%, the inhibition at 250 g/ha [12, 16] was at least 70% and the inhibition at 500 g/ha ([13]; 500 g/ha) was at least 90%. It also gave an inhibition at 1000 g/ha ([13]; 1000 g/ha) of at least 90% and an inhibition at 250 g/ha [14] of at least 70%.
